In patent US20240150377A1, “MODULATORS OF CYSTIC FIBROSIS TRANSMEMBRANE CONDUCTANCE REGULATOR” (VERTEX PHARMACEUTICALS INCORPORATED, priority 2020, published 2024):
Read-outs that look alike come from different tables or passages of the source. Values belong to the molecule of their own block, whether it stands above or below them.

Target: T1, CFTR (Homo sapiens, UniProt P13569, DEL508-508)
T1 construct: endogenous in cells; host or cells: primary human bronchial epithelial cells from CF subjects (F508del/MF-HBE), differentiated at air-liquid interface
Test: HBE assay: Ussing chamber assay of CFTR-mediated short-circuit currents
Format: cell-based
Conditions: for EC50: read-out: HBE EC50; for activation at 10 µM: read-out: HBE Activity at 10 μM (%)
Procedure, shortened: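 CFTR-mediated Isc (μA/cm²) equals the peak response to apical 20 μM forskolin minus the residual after a 20 μM each BPO/GlyH-101/CFTR inhibitor 172 cocktail, recorded in Ussing chambers at Vhold 0 mV, 37 °C, pH 7.4, with 30 μM apical amiloride. Cells were F508del/MF HBE cultures preincubated 18-24 h with corrector (concentration range or 10 μM) plus 1 μM ivacaftor in 20% human serum.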

[1] = Table 12, read-out: HBE Max Activity (%)
[2] = Table 13, read-out: HBE Max Activity (%)
[3] = Table 11, read-out: HBE Max Activity (%)
[4] = HBE assay, read-out: HBE Max activity (%)

T1 sequence (P13569 with tags, fused parts or gaps DEL508-508): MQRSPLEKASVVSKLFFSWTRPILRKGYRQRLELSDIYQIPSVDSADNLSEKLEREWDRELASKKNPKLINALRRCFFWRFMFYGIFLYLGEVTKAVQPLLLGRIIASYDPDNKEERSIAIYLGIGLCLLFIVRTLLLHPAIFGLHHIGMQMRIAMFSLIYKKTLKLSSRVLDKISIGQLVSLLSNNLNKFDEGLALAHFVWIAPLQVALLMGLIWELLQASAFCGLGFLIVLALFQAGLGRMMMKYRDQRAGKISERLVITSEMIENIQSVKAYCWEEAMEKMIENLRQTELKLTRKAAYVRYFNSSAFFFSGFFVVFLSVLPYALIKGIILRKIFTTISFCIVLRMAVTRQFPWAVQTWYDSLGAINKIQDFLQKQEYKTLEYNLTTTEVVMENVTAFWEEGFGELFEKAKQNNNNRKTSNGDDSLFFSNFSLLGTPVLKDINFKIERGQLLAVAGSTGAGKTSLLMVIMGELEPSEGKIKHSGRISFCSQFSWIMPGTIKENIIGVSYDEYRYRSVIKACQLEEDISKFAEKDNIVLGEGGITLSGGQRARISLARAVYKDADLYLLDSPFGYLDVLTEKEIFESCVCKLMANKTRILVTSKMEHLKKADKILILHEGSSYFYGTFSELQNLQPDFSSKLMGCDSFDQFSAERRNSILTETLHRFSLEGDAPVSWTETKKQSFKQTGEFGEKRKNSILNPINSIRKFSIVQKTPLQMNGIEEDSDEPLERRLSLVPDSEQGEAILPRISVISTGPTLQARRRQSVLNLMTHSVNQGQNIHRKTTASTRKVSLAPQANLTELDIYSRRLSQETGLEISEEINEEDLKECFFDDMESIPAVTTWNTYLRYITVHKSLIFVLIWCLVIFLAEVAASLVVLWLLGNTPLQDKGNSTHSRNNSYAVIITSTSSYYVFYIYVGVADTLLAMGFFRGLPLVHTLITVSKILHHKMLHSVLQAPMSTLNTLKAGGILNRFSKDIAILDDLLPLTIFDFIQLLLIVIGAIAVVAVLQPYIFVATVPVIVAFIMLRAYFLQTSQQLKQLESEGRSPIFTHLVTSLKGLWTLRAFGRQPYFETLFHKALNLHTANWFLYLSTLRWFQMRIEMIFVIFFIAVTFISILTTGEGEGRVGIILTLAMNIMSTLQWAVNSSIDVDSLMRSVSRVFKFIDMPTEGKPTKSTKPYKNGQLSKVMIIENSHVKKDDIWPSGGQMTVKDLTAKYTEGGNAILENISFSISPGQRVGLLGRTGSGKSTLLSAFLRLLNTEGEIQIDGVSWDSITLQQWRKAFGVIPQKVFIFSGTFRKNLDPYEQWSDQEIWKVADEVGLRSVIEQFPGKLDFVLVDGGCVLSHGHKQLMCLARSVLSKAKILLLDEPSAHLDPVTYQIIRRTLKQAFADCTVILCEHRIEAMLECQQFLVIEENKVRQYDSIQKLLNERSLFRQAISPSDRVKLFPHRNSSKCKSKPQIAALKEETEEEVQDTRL

EC50 (Table 12): < 1000 nM
Emax [1]: > 60%
Compound: Cc1cccc(C)c1-c1cc2nc(n1)NS(=O)(=O)c1cccc(c1)C(=O)N(Cc1ccc(C3CC(C)(C)CO3)cn1)[C@H](CC(C)(C)C)CO2 (stereo partly drawn) [Compound 156, (11R)-6-(2,6-Dimethylphenyl)-11-(2,2-dimethylpropyl)-12-[[5-(4,4-dimethyltetrahydrofuran-2-yl)-2-pyridyl]methyl]-2,2-dioxo-9-oxa-2λ6-thia-3,5,12,19-tetrazatricyclo[12.3.1.14,8]nonadeca-1(18),4(19),5,7,14,16-hexaen-13-one]

activation at 10 µM (Table 13, at 10 μM): > 600%
Compound: COc1cc(Br)cnc1CN1C(=O)c2cccc(c2)S(=O)(=O)Nc2nc(cc(-c3c(C)cccc3C)n2)OC[C@H]1CC(C)(C)C [Compound 244]

activation at 10 µM (Table 12, at 10 μM): > 600%
Compound: Cc1cccc(C)c1-c1cc2nc(n1)NS(=O)(=O)c1cccc(c1)C(=O)N(Cc1ccc(C3CCCCC3)nn1)[C@H](CC(C)(C)C)CO2 [Compound 233]

EC50 (Table 13): < 1000 nM
Emax [2]: > 60%
Compound: Cc1cccc(C)c1-c1cc2nc(n1)NS(=O)(=O)c1cccc(c1)C(=O)N(Cc1cccc(N3CCC34CCOC4)n1)[C@H](CC(C)(C)C)CO2 (some centres unmarked) [Compound 532]

EC50 (Table 12): < 1000 nM
Emax [1]: > 60%
Compound: COC1(C)CCN(c2cnc(CN3C(=O)c4cccc(c4)S(=O)(=O)Nc4nc(cc(-c5c(C)cccc5C)n4)OC[C@H]3CC(C)(C)C)nc2)C1 (some centres unmarked) [Compound 543]

activation at 10 µM (HBE assay, 10 μM): > 60%
Compound: Cc1cccc(C)c1-c1cc2nc(n1)NS(=O)(=O)c1cccc(c1)C(=O)N(Cc1ncc(N3CC(F)(F)C(F)(F)C3)cn1)[C@H](CC(C)(C)C)CO2 [Compound 1500]

activation at 10 µM (Table 13, at 10 μM): > 600%
EC50 (Table 13): < 1000 nM
Emax [2]: > 60%
Compound: COC1(C)CCN(c2cnc(CN3C(=O)c4cccc(c4)S(=O)(=O)Nc4nc(cc(-c5c(C)cccc5C)n4)OC[C@H]3CC(C)(C)C)nc2)CC1 [Compound 870]

activation at 10 µM (Table 12, at 10 μM): > 600%
Compound: CC(C)=C(C)c1cccc(CN2C(=O)c3cccc(c3)S(=O)(=O)Nc3nc(cc(-c4c(C)cccc4C)n3)OC[C@H]2CC(C)(C)C)n1 [Compound 577]

EC50 (Table 11): 1000 to 3000 nM
Emax [3]: > 60%
Compound: Cc1cccc(C)c1-c1cc2nc(n1)NS(=O)(=O)c1cccc(c1)C(=O)N(Cc1cnc(C3CCCCC3)cn1)[C@H](CC(C)(C)C)CO2 [Compound 891]

EC50 (HBE assay): < 1000 nM
Emax [4]: > 60%
Compound: CC[C@@H](C)[C@@H]1COc2cc(-c3c(C)cccc3C)nc(n2)NS(=O)(=O)c2cccc(c2)C(=O)N1Cc1ncc(OC(C)C)cn1 [Compound 1473]

activation at 10 µM (Table 11, at 10 μM): > 60%
Compound: Cc1cccc(C)c1-c1cc2nc(n1)NS(=O)(=O)c1cccc(c1)C(=O)N(CC1OCCC1(C)C)[C@H](CC(C)(C)C)CO2 (single isomer, unassigned) [Compound 26]

activation at 10 µM (Table 13, at 10 μM): > 600%
Compound: Cc1cccc(C)c1-c1cc2nc(n1)NS(=O)(=O)c1cccc(c1)C(=O)N(Cc1ccc(C(=O)N3CCC(C)(C)C3)cn1)[C@H](CC(C)(C)C)CO2 [Compound 246]

EC50 (Table 10): < 1000 nM
Emax (Table 10, read-out: HBE Max activity (%)): > 60%
Compound: Cc1cccc(C)c1-c1cc2nc(n1)NS(=O)(=O)c1cccc(c1)C(=O)N(Cc1ccc(N3CCOCC3)nc1)[C@H](CC(C)(C)C)CO2 [Compound 60, (11R)-6-(2,6-Dimethylphenyl)-11-(2,2-dimethylpropyl)-12-[(6-morpholino-3-pyridyl)methyl]-2,2-dioxo-9-oxa-2λ^6-thia-3,5,12,19-tetrazatricyclo[12.3.1.14,8]nonadeca-1(18),4(19),5,7,14,16-hexaen-13-one]

EC50 (Table 11): < 1000 nM
Emax [3]: > 60%
Compound: Cc1cccc(C)c1-c1cc2nc(n1)NS(=O)(=O)c1cccc(c1)C(=O)N(CCc1ccc(N3CCC(C)(C)C3)nc1)[C@H](CC(C)(C)C)CO2 [Compound 473]

activation at 10 µM (Table 11, at 10 μM): > 60%
EC50 (Table 11): < 1000 nM
Emax [3]: > 60%
Compound: Cc1cccc(C)c1-c1cc2nc(n1)NS(=O)(=O)c1cccc(c1)C(=O)N(Cc1ncc(N3CCCCC3)cn1)[C@H](CC(C)(C)C)CO2 [Compound 748]

EC50 (Table 13): < 1000 nM
Emax [2]: > 60%
Compound: Cc1cccc(C)c1-c1cc2nc(n1)NS(=O)(=O)c1cccc(c1)C(=O)N(Cc1ccc3c(n1)N1CCOCC1C(C)C3)[C@H](CC(C)(C)C)CO2 (some centres unmarked) [Compound 1154]

activation at 10 µM (Table 12, at 10 μM): > 600%
Compound: Cc1cccc(C)c1-c1cc2nc(n1)NS(=O)(=O)c1cccc(c1)C(=O)N(Cc1nccnc1C)[C@H](CC(C)(C)C)CO2 [Compound 698]

EC50 (Table 11): < 1000 nM
Emax [3]: > 60%
Compound: Cc1cccc(C)c1-c1cc2nc(n1)NS(=O)(=O)c1cccc(c1)C(=O)N(CC1CCC(C)(C)O1)[C@H](CC(C)(C)C)CO2 (single isomer, unassigned) [Compound 34]

EC50 (Table 11): < 1000 nM
Emax [3]: > 60%
Compound: Cc1cccc(C)c1-c1cc2nc(n1)NS(=O)(=O)c1cccc(c1)C(=O)N(Cc1nccc(N(C)C(C)C)n1)[C@H](CC(C)(C)C)CO2 [Compound 123, (11R)-6-(2,6-Dimethylphenyl)-11-(2,2-dimethylpropyl)-12-[[4-[isopropyl(methyl)amino]pyrimidin-2-yl]methyl]-2,2-dioxo-9-oxa-2λ^6-thia-3,5,12,19-tetrazatricyclo[12.3.1.14,8]nonadeca-1(18),4(19),5,7,14,16-hexaen-13-one]

activation at 10 µM (Table 13, at 10 μM): > 600%
Compound: Cc1cccc(C)c1-c1cc2nc(n1)NS(=O)(=O)c1cccc(c1)C(=O)N(CC(=O)N1[C@H](C)CCC[C@@H]1C)[C@H](CC(C)(C)C)CO2 [Compound 190]

activation at 10 µM (Table 13, at 10 μM): > 600%
Compound: Cc1cccc(C)c1-c1cc2nc(n1)NS(=O)(=O)c1cccc(c1)C(=O)N(Cc1cc3ccoc3cn1)[C@H](CC(C)(C)C)CO2 [Compound 998]

activation at 10 µM (Table 13, at 10 μM): > 600%
Compound: Cc1cccc(C)c1-c1cc2nc(n1)NS(=O)(=O)c1cccc(c1)C(=O)N(Cc1cccc(N3CCC[C@H]3C#N)n1)[C@H](CC(C)(C)C)CO2 [Compound 534]

activation at 10 µM (HBE assay, 10 μM): > 60%
Compound: Cc1cccc(C)c1-c1cc2nc(n1)NS(=O)(=O)c1cccc(c1)C(=O)N(Cc1cccc(N(C)CC(C)(C)C3CC3)n1)[C@H](CC(C)(C)C)CO2 [Compound 1421]

EC50 (Table 12): < 1000 nM
Emax [1]: > 60%
Compound: Cc1cccc(C)c1-c1cc2nc(n1)NS(=O)(=O)c1cccc(c1)C(=O)N(Cc1cccc(N3CCCC3C(C)C)n1)[C@H](CC(C)(C)C)CO2 (some centres unmarked) [Compound 547]

activation at 10 µM (HBE assay, 10 μM): > 60%
Compound: COC[C@@]1(C)CCCN1c1cccc(CN2C(=O)c3cccc(c3)S(=O)(=O)Nc3nc(cc(-c4c(C)cccc4C)n3)OC[C@H]2CC(C)(C)C)n1 [Compound 1510]

EC50 (HBE assay): < 1000 nM
Emax [4]: > 60%
Compound: COCCCOc1cnc(CN2C(=O)c3cccc(c3)S(=O)(=O)Nc3nc(cc(-c4c(C)cccc4C)n3)OC[C@H]2CC(C)(C)C)c(F)c1 [Compound 1385]

activation at 10 µM (Table 12, at 10 μM): > 600%
Compound: Cc1cccnc1CNC(=O)CN1C(=O)c2cccc(c2)S(=O)(=O)Nc2nc(cc(-c3c(C)cccc3C)n2)OC[C@H]1CC(C)(C)C [Compound 215]

EC50 (HBE assay): < 1000 nM
Emax [4]: > 60%
Compound: Cc1cccc(C)c1-c1cc2nc(n1)NS(=O)(=O)c1cccc(c1)C(=O)N(Cc1cccc(N(C)C3CCOCC3)n1)[C@H](CC(C)(C)C)CO2 [Compound 1371]

activation at 10 µM (Table 12, at 10 μM): 30 to 60%
Compound: Cc1cccc(C)c1-c1cc2nc(n1)NS(=O)(=O)c1cccc(c1)C(=O)N(CC(=O)NCC1CCCC1)[C@H](CC(C)(C)C)CO2 [Compound 228]

EC50 (HBE assay): < 1000 nM
Emax [4]: > 60%
Compound: Cc1cccc(C)c1-c1cc2nc(n1)NS(=O)(=O)c1cccc(c1)C(=O)N(Cc1nc(N(C)C3CC4(CC4)C3)ccc1F)[C@H](CC(C)(C)C)CO2 [Compound 1300, (11R)-6-(2,6-Dimethylphenyl)-11-(2,2-dimethylpropyl)-12-[[3-fluoro-6-[methyl(spiro[2.3]hexan-5-yl)amino]-2-pyridyl]methyl]-2,2-dioxo-9-oxa-2λ^6-thia-3,5,12,19-tetrazatricyclo[12.3.1.14,8]nonadeca-1(18),4(19),5,7,14,16-hexaen-13-one]

activation at 10 µM (Table 13, at 10 μM): > 600%
Compound: Cc1cccc(C)c1-c1cc2nc(n1)NS(=O)(=O)c1cccc(c1)C(=O)N(CC(=O)N1CCCCC1c1ccccc1F)[C@H](CC(C)(C)C)CO2 (some centres unmarked) [Compound 176]

activation at 10 µM (Table 12, at 10 μM): > 600%
Compound: Cc1cccc(C)c1-c1cc2nc(n1)NS(=O)(=O)c1cccc(c1)C(=O)N(CC(=O)NCc1cnccn1)[C@H](CC(C)(C)C)CO2 [Compound 216]

activation at 10 µM (HBE assay, 10 μM): > 60%
EC50 (HBE assay): < 1000 nM
Emax [4]: > 60%
Compound: Cc1cccc(C)c1-c1cc2nc(n1)NS(=O)(=O)c1cccc(c1)C(=O)N(Cc1ncc(N3CC(C)(C)C3)cn1)[C@H](CC1CC1)CO2 [Compound 1505]

EC50 (Table 11): < 1000 nM
Emax [3]: > 60%
Compound: Cc1cccc(C)c1-c1cc2nc(n1)NS(=O)(=O)c1cccc(c1)C(=O)N(Cc1cccc(-n3cc(C(C)(C)C)cn3)n1)[C@H](CC(C)(C)C)CO2 [Compound 732]

EC50 (Table 13): < 1000 nM
Emax [2]: > 60%
Compound: Cc1cccc(C)c1-c1cc2nc(n1)NS(=O)(=O)c1cccc(c1)C(=O)N(Cc1nc(N(C)CC(C)(C)C)ccc1F)[C@H](CC(C)(C)C)CO2 [Compound 371]

EC50 (Table 12): < 1000 nM
Emax [1]: > 60%
Compound: Cc1cccc(C)c1-c1cc2nc(n1)NS(=O)(=O)c1cccc(c1)C(=O)N(Cc1cccc(N3CCC34CCCC4)n1)[C@H](CC(C)(C)C)CO2 [Compound 565]

activation at 10 µM (Table 12, at 10 μM): > 600%
Compound: Cc1cccc(C)c1-c1cc2nc(n1)NS(=O)(=O)c1cccc(c1)C(=O)N(Cc1ncc(N3CCC(C)(O)C3)cn1)[C@H](CC(C)(C)C)CO2 (some centres unmarked) [Compound 553]

EC50 (Table 12): < 1000 nM
Emax [1]: > 60%
Compound: Cc1cccc(C)c1-c1cc2nc(n1)NS(=O)(=O)c1cccc(c1)C(=O)N(Cc1ncc(CC(C)C)cn1)[C@H](CC(C)C)CO2 [Compound 574]
